Legend:
MDA-MB-231 = test: Antiproliferative activity, MTT assay; type: cell-based, human; conditions: Homo sapiens, MDA-MB-231; MTT, 72 h; standard deviations within 50%
Experimental: (§1) Human breast cancer MCF7, MDA-MB-231, SkBr-3 (purchased from the ATCC collection), human keratinocytes HaCaT, murine fibroblasts L929 and macrophages J774 cells (Collection of Shemyakin-Ovchinnikov Institute of Bioorganic Chemistry RAS) were cultured in standard DMEM or RPMI-1640 medium (ThermoScientific, Waltham, MA, USA) supplemented with 10% fetal bovine serum (FBS, Cytiva, Marlborough, MA, USA) at 37 °C, 5 % CO2 and 80–85% humidity (NuAir CO2 incubator). The cell growth was evaluated by MTT (3-[4,5-dimethylthiazol-2-yl]-2,5-diphenyltetrazolium bromide) test. Cells were seeded at a density of 5 × 10^3 cells per well in 96-well flat-bottomed plates (TPP). The compounds were dissolved in DMSO (AppliChem) to 10 mM before the experiments, and then the resulting solutions were diluted by the medium to the required concentrations. Solutions of the tested compounds with different concentrations in 100 μL of the medium were added and the cells were grown for 72 h. MTT (10 μL/well, 5 mg/mL) was added for the final 3 h. The formazan purple crystals were dissolved in DMSO (100 μL per well). The absorbance of solutions was measured at 540 nm with a MultiScan reader (ThermoFisher). Results were analyzed by Excel package (Microsoft). The inhibition of proliferation (inhibitory index) was calculated as [1–(ODexperiment/ODcontrol)], where OD was MTT optical density. IC50 (Table 1) was determined as the concentration giving 50% of inhibition in the comparison with it […].

MCF7 = test: Antiproliferative activity, MTT assay; type: cell-based; conditions: Homo sapiens, 72 h, standard deviations within 50%
Experimental: as §1

[1] = molecular target: T1, recombinant PI3K (p110α/p85α) (Homo sapiens, UniProt P42336); test: PI3K inhibition assay (HTRF); type: biochemical; conditions: FRET/HTRF detection; approximate; read-out: IC50 PI3Kα
T1 construct: purchased Millipore 14-602
Experimental: The PI 3-Kinase (Class I) HTRF Assay Kit (Cat# 33-016 from Millipore) was used to determine the activity of recombinant PI3K (p110α/p85α) human (Cat# 14-602 from Millipore). The kit was supplemented with ATP (Cat# A26209 from Sigma-Aldrich, St. Louis, MI, USA), DL-dithiothreitol (Cat# S-[…]-1 from Sigma-Aldrich), and Wortmannin inhibitor (Cat# 12-338 from Millipore, Burlington, MA, USA). The latter was used at 0.1 μM concentration. For measurements, a Victor ×5 plate reader (PerkinElmer, 2030, Waltham, MA, USA) was used in TRF mode with excitation at 340 nm. Fluorescence emission was recorded at 613 and 670 nm in a 384-well plate (Cat# S-CLS3658 from Sigma-Aldrich) at a time interval of 150-350 μs. The enzymatic reaction and the determination of its products were carried out according to the recommendations of the reagent kit manufacturer (Millipore) in two wells for each sample. In calculations, readings in parallel wells were averaged. The calculations were made according to the recommendations of the equipment manufacturer.

fibroblasts L929 = test: Antiproliferative activity, MTT assay; type: cell-based, murine; conditions: Mus musculus, 72 h, standard deviations within 50%
Experimental: as §1

macrophages J774 = test: Antiproliferative activity, MTT assay; type: cell-based, murine; conditions: Mus musculus, 72 h, standard deviations within 50%
Experimental: as §1

SkBr-3 cells = test: Cell cycle analysis (PI-stained DNA, flow cytometry); type: cell-based, human
Experimental: The cell cycle was analyzed using PI-stained DNA. Cells from the compounds 7 treated cultures were collected at 24, 48, and 72 h, trypsinized, washed in ice-cold PBS, fixed by the addition of 70% ethanol and left for 2 h at −20 °C. Thereafter, the cells were washed twice in PBS, stained with 50 μg/mL of propidium iodide (Sigma, Merck KGaA, Darmstadt, Germany) in PBS, treated with 10 µg/mL of RNAse and analyzed by flow cytometry using FACScan device (BD, USA). A total of 2000 events were collected. The results were analyzed using FlowJo 10 software (BD, Franklin Lakes, NJ, USA).

keratinocytes HaCaT = test: Antiproliferative activity, MTT assay; type: cell-based; conditions: Homo sapiens, 72 h, standard deviations within 50%
Experimental: as §1

MCF7 breast cancer cells = tested on: MCF7 breast cancer cells; design: method as in PMID 32825760; conditions: read-out: Concentration causing 50% suppression of MCF7 cell growth; cited from earlier work
[2] = tested on: PI3K/Akt/mTOR signaling pathway in MCF7 cells; test: Immunoblotting of PI3K/Akt/mTOR phosphorylation; type: cell-based, human; conditions: 500 nM
Experimental: MCF7 cells were seeded onto 100 mm dishes (Corning) and cultivated for 24 h. Compound 7c was added at different concentrations while the reference compound wortmannin (Selleckchem, Houston, TX, USA) was used at 500 nM. The cells were harvested after 72 h of growth with the compounds. To prepare cell extracts, MCF7 cells were twice washed in phosphate buffer and incubated for 10 min on ice in the modified lysis buffer containing 50 mM Tris-HCl, pH 7.5, 0.5% Igepal CA-630, 150 mM NaCl, 1 mM EDTA, 1 mM DTT, 1 mM PMSF, 0.1 mM sodium orthovanadate and aprotinin, leupeptin, pepstatin (1 µg/mL each). The protein content was determined by the Bradford method. Cell lysates were separated in 10% SDS-PAGE under reducing conditions, transferred to a nitrocellulose membrane (GE HealthCare, Chicago, IL, USA), and processed according to a standard protocol. To prevent nonspecific absorption, the membranes were treated with 5% nonfat milk solution in TBS buffer (20 mM Tris, 500 mM NaCl, pH 7.5) with 0.1% Tween-20 and then incubated with primary antibodies (Cell Signaling Technology, Danvers, MA, USA) overnight at 4 °C. […] Signals were detected using the ECL reagent using the ImageQuant LAS4000 system (GE HealthCare, Chicago, IL, USA).
The signals of phospho-proteins to total ones were calculated using the ImageJ program from inverted images of the bands.

T1 sequence (P42336 whole entry): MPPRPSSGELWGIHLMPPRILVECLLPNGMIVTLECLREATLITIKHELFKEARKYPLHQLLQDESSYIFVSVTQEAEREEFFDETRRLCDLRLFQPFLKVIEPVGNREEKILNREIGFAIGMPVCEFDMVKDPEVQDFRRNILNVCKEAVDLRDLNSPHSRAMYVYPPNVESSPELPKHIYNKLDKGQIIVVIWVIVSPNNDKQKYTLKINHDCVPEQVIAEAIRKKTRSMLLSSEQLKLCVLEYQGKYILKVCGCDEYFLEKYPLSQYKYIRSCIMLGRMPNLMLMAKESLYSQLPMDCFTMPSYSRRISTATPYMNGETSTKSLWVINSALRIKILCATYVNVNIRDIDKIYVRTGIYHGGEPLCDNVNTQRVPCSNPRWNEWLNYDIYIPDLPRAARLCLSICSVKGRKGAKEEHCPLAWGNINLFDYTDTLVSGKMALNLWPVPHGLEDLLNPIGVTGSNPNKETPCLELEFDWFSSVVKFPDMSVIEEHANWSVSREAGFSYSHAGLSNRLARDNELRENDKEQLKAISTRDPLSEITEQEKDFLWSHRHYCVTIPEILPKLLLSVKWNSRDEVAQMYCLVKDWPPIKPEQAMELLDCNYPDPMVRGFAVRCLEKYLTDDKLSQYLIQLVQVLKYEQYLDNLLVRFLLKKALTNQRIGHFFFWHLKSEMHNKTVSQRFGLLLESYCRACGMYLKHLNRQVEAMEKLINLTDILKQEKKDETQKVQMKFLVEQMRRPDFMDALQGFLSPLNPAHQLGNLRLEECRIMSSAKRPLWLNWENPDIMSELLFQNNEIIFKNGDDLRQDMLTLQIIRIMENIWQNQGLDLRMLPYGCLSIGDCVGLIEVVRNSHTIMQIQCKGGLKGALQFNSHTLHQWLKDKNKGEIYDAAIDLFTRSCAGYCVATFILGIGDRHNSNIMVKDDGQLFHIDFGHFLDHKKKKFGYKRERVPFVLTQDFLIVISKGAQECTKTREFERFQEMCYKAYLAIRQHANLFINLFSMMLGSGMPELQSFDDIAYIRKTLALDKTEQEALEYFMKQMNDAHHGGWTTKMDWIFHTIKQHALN
T1 sequence (P27986 whole entry partner): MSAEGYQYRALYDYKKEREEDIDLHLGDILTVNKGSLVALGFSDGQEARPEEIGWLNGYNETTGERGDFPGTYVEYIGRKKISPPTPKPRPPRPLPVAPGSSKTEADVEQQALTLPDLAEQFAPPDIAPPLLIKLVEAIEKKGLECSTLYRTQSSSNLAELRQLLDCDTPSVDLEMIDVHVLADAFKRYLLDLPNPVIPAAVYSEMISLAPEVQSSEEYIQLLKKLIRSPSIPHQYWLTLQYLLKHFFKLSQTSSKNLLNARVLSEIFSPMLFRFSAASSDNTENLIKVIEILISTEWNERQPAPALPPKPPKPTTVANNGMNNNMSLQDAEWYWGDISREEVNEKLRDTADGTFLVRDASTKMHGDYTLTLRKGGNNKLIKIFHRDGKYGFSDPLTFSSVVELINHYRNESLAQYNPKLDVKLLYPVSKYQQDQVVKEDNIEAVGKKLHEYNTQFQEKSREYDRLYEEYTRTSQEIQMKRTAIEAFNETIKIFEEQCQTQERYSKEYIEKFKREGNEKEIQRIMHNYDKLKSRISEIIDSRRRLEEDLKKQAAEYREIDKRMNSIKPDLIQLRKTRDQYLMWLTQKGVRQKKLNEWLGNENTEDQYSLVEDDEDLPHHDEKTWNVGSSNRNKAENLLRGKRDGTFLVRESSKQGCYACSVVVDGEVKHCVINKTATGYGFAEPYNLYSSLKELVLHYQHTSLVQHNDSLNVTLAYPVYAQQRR

Compound	melting point	IC50 (MDA-MB-231)	IC50 (MCF7)	IC50 [1]	IC50 (fibroblasts L929)	IC50 (macrophages J774)	Concentration above which all cells died (SkBr-3 cells)	Concentration below which no changes in the cell cycle were found (SkBr-3 cells)	IC50 (keratinocytes HaCaT)	IC50 (MCF7 breast cancer cells)	Effect on PI3K/Akt/mTOR signaling pathway [2]
COc1ccc(CNC(=O)Nc2ccc(-c3ccc4c(N5CCOCC5)nc(N5CCOCC5)nc4c3)cc2)cc1 [Compound 7b, 1-(4-(2,4-Dimorpholinoquinazolin-7-yl)phenyl)-3-(4-methoxybenzyl)urea]	–	1.7 µM	1.1 µM	~50 µM	12 µM	1.6 µM	higher than 10 μM	below 1 μM	0.8 µM	–	–
N[C@@H](CCCCNC(=O)Nc1ccc(-c2ccc3c(N4CCOCC4)nc(N4CCOCC4)nc3c2)cc1)C(=O)O [Compound 7e, N6-((4-(2,4-Dimorpholinoquinazolin-7-yl)phenyl)carbamoyl)lysine]	89 to 91 °C	24 µM	9.5 µM	–	12 µM	12 µM	–	–	12 µM	–	–
O=C(Nc1ccc(-c2ccc3c(N4CCOCC4)nc(N4CCOCC4)nc3c2)cc1)Nc1ccc([N+](=O)[O-])cc1 [Compound 7f, 1-(4-(2,4-Dimorpholinoquinazolin-7-yl)phenyl)-3-(4-nitrophenyl)urea]	240 to 242 °C	8.8 µM	6.5 µM	–	12 µM	6 µM	–	–	3 µM	–	–
COC(=O)c1ccc(NC(=O)Nc2ccc(-c3ccc4c(N5CCOCC5)nc(N5CCOCC5)nc4c3)cc2)cc1 [Compound 7j, Methyl 4-(3-(4-(2,4-Dimorpholinoquinazolin-7-yl)phenyl)ureido)benzoate]	–	4.1 µM	3.8 µM	–	3 µM	0.8 µM	higher than 10 μM	below 1 μM	3 µM	–	–
CCOC(=O)N1CCN(C(=O)Nc2ccc(-c3ccc4c(N5CCOCC5)nc(N5CCOCC5)nc4c3)cc2)CC1 [Compound 7k, Ethyl 4-((4-(2,4-Dimorpholinoquinazolin-7-yl)phenyl)carbamoyl)piperazine-1-carboxylate]	109 to 111 °C	17 µM	11 µM	–	25 µM	3 µM	–	–	6 µM	–	–
CN(C)C(=N)N=C(N)N [MF, metformin]	–	–	–	–	–	–	–	–	–	5800 µM	–
COC[C@H]1OC(=O)c2coc3c2[C@@]1(C)C1=C(C3=O)[C@@H]2CCC(=O)[C@@]2(C)C[C@H]1OC(C)=O [wortmannin, reference compound]	–	–	–	–	–	–	–	–	–	–	neither affects PI3K/Akt/mTOR signaling pathway even at 500 nM

The next lines start with results.

melting point	IC50 (MDA-MB-231)	IC50 (MCF7)	IC50 [1]	Compound	IC50 (fibroblasts L929)	IC50 (macrophages J774)	Concentration above which all cells died (SkBr-3 cells)	Concentration below which no changes in the cell cycle were found (SkBr-3 cells)	IC50 (keratinocytes HaCaT)	IC50 (MCF7 breast cancer cells)	Effect on PI3K/Akt/mTOR signaling pathway [2]
191 to 193 °C	–	–	–	Nc1ccc(-c2ccc3c(N4CCOCC4)nc(N4CCOCC4)nc3c2)cc1 [Compound 6, 4-(2,4-Dimorpholinoquinazolin-7-yl)aniline]	–	–	–	–	–	–	–
184 to 186 °C	6.7 µM	6.6 µM	–	O=C(NCc1ccco1)Nc1ccc(-c2ccc3c(N4CCOCC4)nc(N4CCOCC4)nc3c2)cc1 [Compound 7a, 1-(4-(2,4-Dimorpholinoquinazolin-7-yl)phenyl)-3-(furan-2-ylmethyl)urea]	–	–	–	–	–	–	–
83 to 85 °C	10.5 µM	5.2 µM	–	O=C(Nc1ccc(-c2ccc3c(N4CCOCC4)nc(N4CCOCC4)nc3c2)cc1)NC1CC1 [Compound 7d, 1-Cyclopropyl-3-(4-(2,4-dimorpholinoquinazolin-7-yl)phenyl)urea]	–	–	–	–	–	–	–
–	14 µM	4.9 µM	–	O=C(Nc1ccc(F)cc1)Nc1ccc(-c2ccc3c(N4CCOCC4)nc(N4CCOCC4)nc3c2)cc1 [Compound 7g, 1-(4-(2,4-Dimorpholinoquinazolin-7-yl)phenyl)-3-(4-fluorophenyl)urea]	25 µM	6 µM	–	–	25 µM	–	–
210 to 212 °C	14 µM	13 µM	–	O=C(Nc1ccc(-c2ccc3c(N4CCOCC4)nc(N4CCOCC4)nc3c2)cc1)Nc1ccccn1 [Compound 7h, 1-(4-(2,4-Dimorpholinoquinazolin-7-yl)phenyl)-3-(pyridin-2-yl)urea]	12 µM	6 µM	–	–	3 µM	–	–
228 to 230 °C	11 µM	6.1 µM	–	O=C(Nc1ccc(-c2ccc3c(N4CCOCC4)nc(N4CCOCC4)nc3c2)cc1)Nc1cccc2ccccc12 [Compound 7i, 1-(4-(2,4-Dimorpholinoquinazolin-7-yl)phenyl)-3-(naphthalen-1-yl)urea]	6 µM	6 µM	–	–	6 µM	–	–
168 to 170 °C	> 50 µM	> 50 µM	–	C#CCNC(=O)Nc1ccc(-c2ccc3c(N4CCOCC4)nc(N4CCOCC4)nc3c2)cc1 [Compound 7l, 1-(4-(2,4-Dimorpholinoquinazolin-7-yl)phenyl)-3-(prop-2-yn-1-yl)urea]	> 50 µM	6 µM	–	–	3 µM	–	–

From PMC9503112, “Synthesis, Molecular Docking, In Vitro and In Vivo Studies of Novel Dimorpholinoquinazoline-Based Potential Inhibitors of PI3K/Akt/mTOR Pathway” (International Journal of Molecular Sciences, 2022)
